Reference: publication PMC9604775, “Bioactive Peptides from Skipjack Tuna Cardiac Arterial Bulbs: Preparation, Identification, Antioxidant Activity, and Stability against Thermal, pH, and Simulated Gastrointestinal Digestion Treatments” (Marine Drugs, 2022)
Blank lines part the entries; values can stand above or below the compound they belong to. Where a SMILES comes first, the peptide text is derived from it. Where no end group is shown, it is not given here.

Legend:
[1] = set-up: method as in 10 sources, ref 24 = [24]; PMID 35127795; doi:10.3389/fnut.2021.813780; 24. Wang J. Wang Y.M. Li L.Y. Chi C.F. Wang B. Twelve antioxidant peptides from protein hydrolysate of Skipjack tuna ( Katsuwonus pelamis ) roe prepared by flavourzyme: Purification, sequence identifi ||| ref 55 = [55]; doi:10.1016/j.jff.2016.06.008; 55. Pan X. Zhao Y.Q. Hu F.Y. Wang B. Preparation and identification of antioxidant peptides from protein hydrolysate of skate (Raja porosa) cartilage J. Funct. Foods 2016 25 220 230 10.1016/j.jff.2016 ||| ref 48 = [48]; PMID 31035632; doi:10.3390/md17050251; 48. Yang X.R. Qiu Y.T. Zhao Y.Q. Chi C.F. Wang B. Purification and characterization of antioxidant peptides derived from protein hydrolysate of the marine bivalve mollusk Tergillarca granosa Mar Drugs ||| ref 15 = [15]; doi:10.1016/j.jff.2018.06.014; 15. Zhao W.H. Luo Q.B. Pan X. Chi C.F. Sun K.L. Wang B. Preparation, identification, and activity evaluation of ten antioxidant peptides from protein hydrolysate of swim bladders of miiuy croaker ( Mi ||| ref 47 = [47]; PMID 35531284; doi:10.3389/fmicb.2022.791248; 47. Sun K. Gao M. Wang Y.Z. Li X.R. Wang P. Wang B. Antioxidant peptides from protein hydrolysate of marine red algae Eucheuma cottonii : Preparation, identification, and cytoprotective mechanisms on ||| ...; conditions: literature value; cited from earlier work
[2] = set-up: method as in 10 sources, ref 24 = [24]; PMID 35127795; doi:10.3389/fnut.2021.813780; 24. Wang J. Wang Y.M. Li L.Y. Chi C.F. Wang B. Twelve antioxidant peptides from protein hydrolysate of Skipjack tuna ( Katsuwonus pelamis ) roe prepared by flavourzyme: Purification, sequence identifi ||| ref 43 = [43]; doi:10.1016/j.foodres.2010.02.009; 43. You L. Zhao M. Regenstein J.M. Ren J. Purification and identification of antioxidant peptides from loach ( Misgurnus anguillicaudatus ) protein hydrolysate by consecutive chromatography and electr ||| ref 44 = [44]; doi:10.1016/j.jff.2015.03.045; 44. Chi C.F. Hu F.Y. Wang B. Li T. Ding G.F. Antioxidant and anticancer peptides from protein hydrolysate of blood clam ( Tegillarca granosa ) muscle J. Funct. Foods 2015 15 301 313 10.1016/j.jff.2015 ||| ref 42 = [42]; PMID 35621976; doi:10.3390/md20050325; 42. Sheng Y. Qiu Y.T. Wang Y.M. Chi C.F. Wang B. Novel antioxidant collagen peptides of Siberian sturgeon ( Acipenser baerii ) cartilages: The preparation, characterization, and cytoprotection of H 2 ||| ref 45 = [45]; PMID 23411302; doi:10.1016/j.foodchem.2012.12.002; 45. Wang B. Li L. Chi C.F. Ma J.H. Luo H.Y. Xu Y.F. Purification and Characterization of a novel antioxidant peptide derived from blue mussel ( Mytilus edulis ) protein hydrolysate Food Chem. 2013 138 ||| ...; conditions: literature value; cited from earlier work
[3] = set-up: method as in 5 sources, ref 41 = [41]; doi:10.1016/j.procbio.2022.01.008; 41. Wang Y.M. Li X.Y. Wang J. He Y. Chi C.F. Wang B. Antioxidant peptides from protein hydrolysate of skipjack tuna milt: Purification, identification, and cytoprotection on H 2 O 2 damaged human umbi ||| ref 44 = [44]; doi:10.1016/j.jff.2015.03.045; 44. Chi C.F. Hu F.Y. Wang B. Li T. Ding G.F. Antioxidant and anticancer peptides from protein hydrolysate of blood clam ( Tegillarca granosa ) muscle J. Funct. Foods 2015 15 301 313 10.1016/j.jff.2015 ||| ref 20 = [20]; doi:10.1016/j.jff.2014.10.027; 20. Chi C.F. Wang B. Wang Y.M. Zhang B. Deng S.G. Isolation and characterization of three antioxidant peptides from protein hydrolysate of bluefin leatherjacket ( Navodon septentrionalis ) heads J. Fu ||| ref 48 = [48]; PMID 31035632; doi:10.3390/md17050251; 48. Yang X.R. Qiu Y.T. Zhao Y.Q. Chi C.F. Wang B. Purification and characterization of antioxidant peptides derived from protein hydrolysate of the marine bivalve mollusk Tergillarca granosa Mar Drugs ||| ref 39 = [39]; PMID 31430875; doi:10.3390/antiox8080318; 39. Zhang L. Zhao G.X. Zhao Y.Q. Qiu Y.T. Chi C.F. Wang B. Identification and active evaluation of antioxidant peptides from protein hydrolysates of skipjack tuna ( Katsuwonus pelamis ) head Antioxida; conditions: literature value; cited from earlier work
[4] = Stability to simulated gastrointestinal digestion (DPPH· scavenging activity); assay type: in vitro ADME; conditions: two-stage model: pepsin 120 min then trypsin 120 min; 0 to 240 min; peptide 2.0 mg/mL; read-out DPPH· scavenging activity
Experimental: The stability of TCP1 to TCP11 from tuna cardiac arterial bulbs was determined according to the previous method with a slight modification. The DPPH· scavenging activity (%) of TCP1 to TCP11 at 2.0 mg/mL were measured at the set conditions to evaluate their stability.
The thermostability of TCP1 to TCP11 at 20, 40, 60, 80, or 100 °C for 60 min was analyzed in water bath. The influences of pH values of 3, 5, 7, 9, or 11 were employed to estimate the acid and alkali stability properties of TCP1 to TCP11 at 25 °C, and the detecting time was set to 60, 120, and 180 min, respectively. The influence of simulate GI digestion on the stability of TCP1 to TCP11 was evaluated by the two-stage digestion model. In short, APs (TCP1 to TCP11) were separately treated with pepsin for 120 min and trypsin for 120 min.

[5] = set-up: method as in 10 sources, ref 51 = [51]; doi:10.1016/j.jff.2015.04.042; 51. Cai L. Wu X. Zhang Y. Li X. Ma S. Li J. Purification and characterization of three antioxidant peptides from protein hydrolysate of grass carp ( Ctenopharyngodon idella ) skin J. Funct. Foods 2015 ||| ref 42 = [42]; PMID 35621976; doi:10.3390/md20050325; 42. Sheng Y. Qiu Y.T. Wang Y.M. Chi C.F. Wang B. Novel antioxidant collagen peptides of Siberian sturgeon ( Acipenser baerii ) cartilages: The preparation, characterization, and cytoprotection of H 2 ||| ref 24 = [24]; PMID 35127795; doi:10.3389/fnut.2021.813780; 24. Wang J. Wang Y.M. Li L.Y. Chi C.F. Wang B. Twelve antioxidant peptides from protein hydrolysate of Skipjack tuna ( Katsuwonus pelamis ) roe prepared by flavourzyme: Purification, sequence identifi ||| ref 48 = [48]; PMID 31035632; doi:10.3390/md17050251; 48. Yang X.R. Qiu Y.T. Zhao Y.Q. Chi C.F. Wang B. Purification and characterization of antioxidant peptides derived from protein hydrolysate of the marine bivalve mollusk Tergillarca granosa Mar Drugs ||| ref 43 = [43]; doi:10.1016/j.foodres.2010.02.009; 43. You L. Zhao M. Regenstein J.M. Ren J. Purification and identification of antioxidant peptides from loach ( Misgurnus anguillicaudatus ) protein hydrolysate by consecutive chromatography and electr ||| ...; conditions: literature value; cited from earlier work

Compound: EGPFGPEG [literature antioxidant peptide from redlip croaker scales]
EC50 O2^−· [1]: 470 µg/mL
EC50 DPPH· [2]: 370 µg/mL

Compound: GVPLT [literature antioxidant peptide from Navodon septentrionalis heads]
EC50 ABTS^+· [3]: 3124 µg/mL

Declined percentage of DPPH· scavenging activity after simulated GI digestion [4]: 2.65%
Compound: GDRGD [TCP11, Gly-Asp-Arg-Gly-Asp]

Compound: SVTEV [literature antioxidant peptide from tuna milts]
EC50 ABTS^+· [3]: 1020 µg/mL
EC50 DPPH· [2]: 890 µg/mL

Compound: WPPD [literature antioxidant peptide from blood cockle (T. granosa)]
EC50 HO· [5]: 380 µg/mL
EC50 ABTS^+· [3]: 540 µg/mL
EC50 O2^−· [1]: 460 µg/mL
EC50 DPPH· [2]: 360 µg/mL

Compound: TTANIEDRR [literature antioxidant peptide from salmon pectoral fin]
EC50 DPPH· [2]: 2500 µg/mL

Compound: VGGRP [literature antioxidant peptide from grass carp skin]
EC50 HO· [5]: 2060 µg/mL

Compound: EYEA [literature antioxidant peptide from Antarctic krill]
EC50 HO· [5]: 946 µg/mL
EC50 O2^−· [1]: 793 µg/mL

Compound: YGPM [literature antioxidant peptide from Scomberomorous niphonius skins]
EC50 ABTS^+· [3]: 820 µg/mL
EC50 O2^−· [1]: 730 µg/mL

Compound: FIMGPY [literature antioxidant peptide from skate cartilages]
EC50 O2^−· [1]: 1610 µg/mL

Compound: QAEP [literature antioxidant peptide from tuna roes]
EC50 O2^−· [1]: 2916 µg/mL

Declined percentage of DPPH· scavenging activity after simulated GI digestion [4]: 4.21%
Compound: GEGQR [TCP8, Gly-Glu-Gly-Gln-Arg]

Compound: VRDQY [literature antioxidant peptide from tuna milts]
EC50 ABTS^+· [3]: 1040 µg/mL
EC50 DPPH· [2]: 880 µg/mL

Compound: YPPAK [literature antioxidant peptide from Mytilus edulis]
EC50 HO· [5]: 228 µg/mL
EC50 O2^−· [1]: 72 µg/mL
EC50 DPPH· [2]: 2620 µg/mL

Compound: PSYV [literature antioxidant peptide from pond loach meat]
EC50 HO· [5]: 2640 µg/mL
EC50 DPPH· [2]: 2640 µg/mL

Compound: GHHAAA [literature antioxidant peptide from tuna milts]
EC50 ABTS^+· [3]: 1120 µg/mL

Compound: EPLSD [literature antioxidant peptide from blood cockle]
EC50 O2^−· [1]: 2040 µg/mL

Compound: LKQELEDLLEKQE [literature antioxidant peptide from Pacific oyster]
EC50 HO· [5]: 46 µg/mL

Compound: QDHKA [literature antioxidant peptide from tuna milts]
EC50 HO· [5]: 536 µg/mL

Compound: IELFPGLP [literature antioxidant peptide from Siberian sturgeon cartilages]
EC50 HO· [5]: 1630 µg/mL
EC50 DPPH· [2]: 1380 µg/mL

Compound: VPDDD [literature antioxidant peptide from Miichthys miiuy swim bladders]
EC50 O2^−· [1]: 4110 µg/mL

Declined percentage of DPPH· scavenging activity after simulated GI digestion [4]: 3.15%
Compound: CC(C)C[C@H](NC(=O)CN)C(=O)N[C@@H](CC(N)=O)C(=O)O [TCP10, Gly-Leu-Asn] (H-Gly-Leu-Asn-OH)

Compound: NADFGLNGLEGLA [literature antioxidant peptide from giant squid]
EC50 HO· [5]: 612 µg/mL

Compound: GPEGPMGLE [literature antioxidant peptide from redlip croaker scales]
EC50 HO· [5]: 450 µg/mL
EC50 O2^−· [1]: 620 µg/mL
EC50 DPPH· [2]: 590 µg/mL

Compound: NGLEGLK [literature antioxidant peptide from giant squid]
EC50 O2^−· [1]: 420 µg/mL

Compound: YSKT [literature antioxidant peptide from Eucheuma cottonii]
EC50 DPPH· [2]: 1710 µg/mL

Compound: YAVT [literature antioxidant peptide from Eucheuma cottonii]
EC50 O2^−· [1]: 560 µg/mL

Declined percentage of DPPH· scavenging activity after simulated GI digestion [4]: 4.25%
Compound: GEEGD [TCP5, Gly-Glu-Glu-Gly-Asp]

Compound: FYKA [literature antioxidant peptide from Eucheuma cottonii]
EC50 O2^−· [1]: 1910 µg/mL
EC50 DPPH· [2]: 2560 µg/mL

Compound: PYGAKG [literature antioxidant peptide from S. niphonius skins]
EC50 O2^−· [1]: 800 µg/mL

Compound: GFIGPTE [literature antioxidant peptide from redlip croaker scales]
EC50 O2^−· [1]: 740 µg/mL
EC50 DPPH· [2]: 450 µg/mL

Compound: WLDPDG [literature antioxidant peptide from T. granosa]
EC50 HO· [5]: 1540 µg/mL

Compound: SLPY [literature antioxidant peptide from Antarctic krill]
EC50 HO· [5]: 826 µg/mL

Compound: GFYAA [literature antioxidant peptide from Miichthys miiuy swim bladders]
EC50 O2^−· [1]: 3030 µg/mL
